± gives the expanded uncertainty stated by the source.
Conditions: 100 kPa, Liquid, Parallel plate method

thermal conductivity (283.15 K) [W/m/K]	thermal conductivity (303.15 K) [W/m/K]	thermal conductivity (323.15 K) [W/m/K]	thermal conductivity (343.15 K) [W/m/K]	SMILES
0.239 ± 0.02	0.248 ± 0.02	0.257 ± 0.02	0.266 ± 0.02	OCCO [1,2-ethanediol]
0.206 ± 0.02	0.207 ± 0.02	0.206 ± 0.02	0.207 ± 0.02	CC(O)CO (stereo not drawn) [1,2-propanediol]

— the NIST ThermoML archive (doi:10.1016/j.jct.2014.12.001)
